# Results published in patent EP4656049A1, “A METHOD OF CONTROLLING INSECT PESTS” (UPL Mauritius Limited, priority 2024, dated 2025).
# Legend:
# Format in all cases: in vivo
# Halyomorpha halys Nymphs = test: Lab trial in Petri dishes, suspension applied on nymphs + spray on beans; conditions: 0.5 ml/L
# Procedure: Composition used for insect control: Suspension of Beauveria bassiana CNCM I-2960 spores prepared in Tween 80. Total CFU count = 1 x 10^8 CFU/ml Trial method: Lab trial in Petri dishes, 10 replicates, 5 nymphs/replicate Suspension applied on nymphs + spray on beans Incubation in climatic room at +25°C Assessment of mortality percentage of Halyomorpha halys Nymphs at 10 DAA Comparative control: Acetamiprid Table 2: Efficacy of Beauveria bassiana CNCM I-2960 on Halyomorpha halys Nymphs
# Halyomorpha halys eggs = test: Lab trial in Petri dishes, suspension sprayed on eggs; conditions: 0.5 ml/L
# Procedure: Composition used for insect control: Suspension of Beauveria bassiana CNCM I-2960 spores prepared in Tween 80. Total CFU count = 1 x 10^6 CFU/ml, 1 x 10^7 CFU/ml and 1 x 10^8 CFU/ml Suspension of Beauveria bassiana CNCM I-2961 spores prepared in Tween 80. Total CFU count = 1 x 10^6 CFU/ml, 1 x 10^7 CFU/ml and 1 x 10^8 CFU/ml Trial method: Lab trial in Petri dishes, 5 replicates, 10 nymphs/replicate Suspension sprayed on eggs with equivalent volume of 1000 L/ha Incubation in climatic room at +25°C Assessment of mortality percentage of Halyomorpha halys Nymphs from treated eggs at 6 DAH, 9DAH, 13 DAH and 17 DAH. DAH = Days after hatching Comparative control: Acetamiprid Table 3: Efficacy of Beauveria bassiana CNCM-2961 and Beauveria bassiana CNCM I-2960 on Halyomorpha halys nymphs from treated eggs
# [1] = system: Empoasca vitis L2/L3 larvae; test: Lab trial in Petri dishes, leaf dipped in suspension; conditions: 75 ml/L
# Procedure: Composition used for insect control: Suspension of Beauveria bassiana CNCM I-2961 spores prepared in Tween 80. Total CFU count = 1.0 x 10^8 CFU/ml Trial method: Lab trial in Petri dishes, 10 replicates, 5 L2&L3 larvae /replicate Leaf dipped in prepared suspension of treatment, let dried and set up on agar agar Incubation in climatic room at +20°C, dead adults removed and incubated for sporulation on cadaver: assessment at 18 DAA Assessment of mortality percentage of Empoasca vitis L2/L3 larvae at 7 DAA, 10DAA. Comparative control: Lambda cyhalothrin Table 5: Efficacy of Beauveria bassiana CNCM I-2961 on Empoasca vitis L2/L3 larvae
# Empoasca vitis adults = test: as above; conditions: 75 ml/L
# Procedure: Composition used for insect control: Suspension of Beauveria bassiana CNCM I-2960 spores prepared in Tween 80. Total CFU count = 8.2 x 10^7 CFU/ml Suspension of Beauveria bassiana CNCM I-2961 spores prepared in Tween 80. Total CFU count = 1.1 x 10^8 CFU/ml Trial method: Lab trial in Petri dishes, 5 replicates, 10 nymphs/replicate Leaf dipped in prepared suspension of treatment, let dried and set up on agar agar Incubation in climatic room at +20 C, dead adults removed and incubated for sporulation on cadaver: assessment at 15 DAA Assessment of mortality percentage of Empoasca vitis adults at 7 DAA, 11DAA. Comparative control: Lambda cyhalothrin Table 4: Efficacy of Beauveria bassiana CNCM I-2961 and Beauveria bassiana CNCM I-2960 on Empoasca vitis adults
# Bactrocera oleae adults = test: Lab trial in plastic containers, flies dipped in test solution; conditions: 75 ml/L
# Procedure: Composition used for insect control: Suspension of Beauveria bassiana CNCM I-2960 spores prepared in Tween 80. Total CFU count = 9.5 x 10^7 CFU/ml Trial method: Lab trial in plastic containers, 5 replicates, 10 adults /replicate Flies dipped in test solution Incubation in climatic room at +25°C Assessment of mortality percentage of Bactrocera oleae adults at 10DAT. DAT = Days after Treatment Comparative control: Lambda-cyhalothrin Table 7: Efficacy of Beauveria bassiana CNCM I-2960 on Bactrocera oleae adults
# [2] = system: Dysaphis plantaginea adults; test: Lab trial in Petri dishes, leaf disc dipped in suspension; conditions: 0.14 kg/ha
# Procedure: Composition used for insect control: Suspension of Beauveria bassiana CNCM I-2961 spores prepared in Tween 80. Total CFU count = 1.2 x 10^8 CFU/ml Trial method: Lab trial in Petri dishes, 10 replicates, 5 adults/replicate Leaf disc dipped in prepared suspension of treatment, let dried and set up on agar agar Incubation in climatic room at +21°C, dead adults removed and incubated for sporulation on cadaver: assessment at 17 DAA Assessment of mortality percentage of Dysaphis plantaginea adults at 8 DAA, 10 DAA DAA = Days after application Comparative control: Flonicamid Table 1: Efficacy of Beauveria bassiana CNCM I-2961 on Dysaphis plantaginea adults
smiles,measurement,setting,value
C/C(=N\C#N)N(C)Cc1ccc(Cl)nc1 [Acetamiprid],Mortality percentage of Halyomorpha halys Nymphs at 10 DAA,Halyomorpha halys Nymphs,100%
same,Mortality percentage of Halyomorpha halys nymphs from treated eggs at 6 DAH,Halyomorpha halys eggs; 6 DAH,0%
same,Mortality percentage of Halyomorpha halys nymphs from treated eggs at 9 DAH,Halyomorpha halys eggs; 9 DAH,7%
same,Mortality percentage of Halyomorpha halys nymphs from treated eggs at 13 DAH,Halyomorpha halys eggs; 13 DAH,12%
same,Mortality percentage of Halyomorpha halys nymphs from treated eggs at 17 DAH,Halyomorpha halys eggs; 17 DAH,22%
CC1(C)[C@H](C(=O)O[C@H](C#N)c2cccc(Oc3ccccc3)c2)[C@@H]1/C=C(\Cl)C(F)(F)F (racemic) [Lambda cyhalothrin],Mortality percentage of Empoasca vitis larvae at 7 DAA,[1]; 7 DAA,65%
same,Mortality percentage of Empoasca vitis larvae at 10 DAA,[1]; 10 DAA,91%
same,Mortality percentage of Empoasca vitis adults at 7 DAA,Empoasca vitis adults; 7 DAA,83%
same,Mortality percentage of Empoasca vitis adults at 11 DAA,Empoasca vitis adults; 11 DAA,100%
same,Mortality percentage of Bactrocera oleae adults at 10 DAA,Bactrocera oleae adults,100%
N#CCNC(=O)c1cnccc1C(F)(F)F [Flonicamid],Mortality percentage of Dysaphis plantaginea adults at 8 DAA,[2]; 8 DAA,100%
same,Mortality percentage of Dysaphis plantaginea adults at 10 DAA,[2]; 10 DAA,100%
